In paper PMC10449632, “Structural basis for translation inhibition by the glycosylated drosocin peptide” (Nature Chemical Biology, 2023):
No end group written: not given here. *: point of attachment. αGalNAc = CC(=O)N[C@@H]1[C@@H](O)[C@@H](O)[C@@H](CO)O[C@@H]1*

How the values were obtained:
E. coli SQ171 U2609G = assay: Antibiotic susceptibility (growth) assay, E. coli SQ171 U2609G; type: cell-based, Escherichia coli; details: relative to no compound, mean of 3 replicas
Excerpt: (§1) In addition, we also used a strain with a U2609C–A752G double mutation, which would be predicted to restore Watson–Crick base pairing, and with three hydrogen bonds could possibly make breaking the base pair harder than with the canonical two hydrogen bonds for the A–U base pair. As a control, we also tested Dro that lacks the α-D-GalNAc modification, which we predict (assuming that Dro binds analogously to Dro1) should not interact with U2609 and, therefore, not be influenced by the conformation of the U2609–A752 base pair.
(§2) Strains E. coli Keio wild-type and E. coli Keio ΔsbmA used from the Keio knockout collection (Horizon, https://horizondiscovery.com). Wild-type E. coli SQ110 (ΔrrnGADBHC(ptRNA67))[47] and SQ171 (ΔrrnGADEHBC(pKK3535, ptRNA67))[47] strains and related mutants E. coli SQ110 A2059G and E. coli SQ171 A2503G were obtained from the previous Api137 study. E. coli strains SQ171 bearing A752G, U2609C and A752G:U2609C mutations[43] and E. coli SQ171 U2609G[48] were generated previously.
(§3) The susceptibility of E. coli strains to compounds was evaluated by monitoring the bacterial growth in presence of increasing concentrations of the compound of interest. In brief, bacteria were inoculated in a total volume of 100 μl of medium contained in a well of a 96-well microplate (round bottom, with cap, sterile; Sarstedt). The medium used was either LB, as rich medium, or ATCC medium (778 Davis and Mingioli glucose minimal medium), as minimal medium. Before inoculation, bacteria were grown up to exponential phase and then inoculated into the culture mix, containing selective antibiotic if necessary, with an initial optical density at 600 nm (OD600) of 0.05. Values measured from wells containing just the medium were used as a blank. The growth in each well was monitored by measuring the OD600 every 10 minutes for a total of 20 hours at 37 °C with shaking using a plate reader (Tecan Infinite 200 PRO). The inhibition resulting from a compound’s concentration was evaluated by normalizing the OD600 at t = 12 hours (corresponding to the end of the log phase) from the treated culture to the untreated one. For each compound, the concentrations tested were 5 μM, 10 μM and 30 μM. Each single titration assay was done in triplicate with individually prepared culture mixes. For each concentration, the standard deviation was calculated, taking into account each single replica and its specific technical error from the plate reader.

[1] = test system: ribosomes at the stop codon of MLIF-UAA mRNA in the presence of RF2; assay: Toeprinting assay on MLIF*-mRNA with RF2; type: biochemical, Escherichia coli; details: Fig 1h, RF2 (10X), 30 μM compound, plotted values
Experimental: (§4) To ascertain which step during protein synthesis is affected by drosocin, we performed toeprinting assays, where reverse transcription is used to monitor the position of ribosomes on a defined mRNA[34].
(§5) Toeprinting reactions were performed as described previously. In brief, reactions were performed with 6 μl of PURExpress ΔRF123 in vitro protein synthesis system (NEB) in the presence of 1× RF3 and either 1× or 10× of RF1 or RF2 (relative to the manufacturer’s recommendation). The reactions were carried out on an MLIF-UAA-toeprint template (5′-[…]-3′, ORF start codon and stop codon are underlined bold), containing T7 promoter, a ribosome binding site, an MLIF-coding ORF and the NV1* primer binding site. The template is a version of the ErmBL template with a truncated ORF and addition of a isoleucine coding codon at the third position in the ORF. The template was generated by polymerase chain reaction of two overlapping 77-nt- and 78-nt-long primers. The reactions contained 30 ng of the MLIF-UAA-toeprint DNA template. The reactions were supplemented with Api137, thiostrepton or one of the drosocin derivates as specified. The transcription–translation reactions were incubated for 15 minutes at 37 °C. The reverse transcription on the MLIF-short-UAA toeprint template was carried out using AMV RT and primer NV*1-Alexa 647 (5′-[…]-3′). The transcription–translation reactions were incubated with AMV RT and NV*1-Alexa 647 for 20 minutes at 37 °C. mRNA degradation was carried out by the addition of 1 µl of 5 M NaOH. The reactions were neutralized with 0.7 µl of 25% HCl, and nucleotide removal was performed with the QIAquick Nucleotide Removal Kit (Qiagen). The samples were dried under vacuum for 2 hours at 60 °C for subsequent gel electrophoresis. The 6% acrylamide gels were scanned on a Typhoon scanner (GE Healthcare).

[2] = test system: E. coli Keio ∆sbmA (BW25113 ΔsbmA); assay: Antibiotic susceptibility (growth) assay, E. coli Keio ΔsbmA; type: cell-based, Escherichia coli; details: 30 μM peptide, average of three biological replicates
Excerpt: Many PrAMPs use the SbmA transporter to pass through the E. coli inner membrane[4],[10],[31]; however, whether drosocin also uses SbmA remains, to our knowledge, unknown. To address this, we monitored the effect of the presence of diverse drosocin peptides (Fig. 1a,b and Supplementary Fig. 1a) on the growth of the wild-type E. coli strain BW25113 containing SbmA or lacking SbmA (ΔsbmA) (Fig. 1c,d). We compared unmodified drosocin (Dro) with various modified forms (Fig. 1a,b). The modified forms included the naturally occurring Dro1 and Dro2 that carry either a monosaccharide (α-D-GalNAc) or disaccharide (β-D-Gal(1→3)-α-D-GalNAc) attached to Thr11, respectively (Fig. 1b). In addition, we examined the previously reported[23],[24] drosocin derivatives bearing β-D-Maltosyl (Dro3), α-D-GlcNAc (Dro4), β-D-Gal (Dro5), β-D-Glc (Dro6), β-D-Lactosyl (Dro7) and β-D-Cellobiosyl (Dro8) modifications on Thr11 (Fig. 1a,b and Supplementary Fig. 1a). Finally, we also included in our analysis the synthetic unmodified drosocin derivative with proline substitutions at positions 7, 11 and 12 (Dro-3P) (Fig. 1a), which was previously reported to have similar antimicrobial activity to the monosaccharide form of drosocin[25]. Growth was monitored in both rich (LB) and minimal medium in the presence of 30 μM of each peptide and normalized with the growth in the absence of the compounds (Methods). […] We also observed no inhibition for Dro2 nor for any of the β-linked disaccharides (Dro3, Dro6 or Dro7). […] By contrast, all drosocin peptides inhibited growth of the E. coli BW25113 strain in minimal medium, albeit to different extents (Fig. 1d).
as §2, §3

[3] = test system: ribosomes at the stop codon of MLIF-UAA mRNA in the presence of RF1; assay: Toeprinting assay on MLIF*-mRNA with RF1; type: biochemical, Escherichia coli; details: for Relative stop band intensity signal: 30 μM compound, MLIF*-mRNA, plotted values; for stalling of ribosomes at the stop codon: toeprinting, 30 μM peptide, 1× or 10× RF1 (trend also with ten-fold RF2)
Experimental: as §4, §5

[4] = test system: E. coli SQ171 A752G/U2609C; assay: Antibiotic susceptibility (growth) assay, E. coli SQ171 A752G/U2609C; type: cell-based, Escherichia coli; details: for OD600 at t = 12 h, Normalized, Average: relative to no compound, mean of 3 replicas
Excerpt: as §1, §2, §3

Dro1: naturally occurring drosocin carrying monosaccharide α-D-GalNAc attached to Thr11 (GKPRPYSPRPT(αGalNAc)SHPRPIRV; UniProt P36193 22-40, looked up)
OD600 at t = 12 h, Normalized, Average (E. coli SQ171 U2609G; 5 μM): 50% | OD600 at t = 12 h, Normalized, Average (E. coli SQ171 U2609G; 30 μM): 8% | Relative stop band intensity signal [1]: 0.1899 | Average of normalized growth ([2]; LB rich medium): 99% | Average of normalized growth ([2]; Minimal medium): 106% | Relative stop band intensity signal ([3]; Fig 1f, RF1 (1X)): 0.3782 | Relative stop band intensity signal ([3]; Fig 1g, RF1 (10X)): 0.6764 | stalling of ribosomes at the stop codon [3]: strongest stalling | OD600 at t = 12 h, Normalized, Average ([4]; 5 μM): 70% | OD600 at t = 12 h, Normalized, Average ([4]; 30 μM): 25% | tolerance of double mutant relative to the wild-type strain ([4]; U2609C–A752G double mutation vs wild-type SQ171, 30 μM): 2.5 fold

Dro: unmodified drosocin, 19 amino acid proline-rich antimicrobial peptide lacking O-glycosylation (GKPRPYSPRPTSHPRPIRV; Drosocin; UniProt P36193 22-40, looked up)
OD600 at t = 12 h, Normalized, Average (E. coli SQ171 U2609G; 5 μM): 87% | OD600 at t = 12 h, Normalized, Average (E. coli SQ171 U2609G; 30 μM): 59% | Relative stop band intensity signal [1]: 0.1232 | Average of normalized growth ([2]; LB rich medium): 102% | Average of normalized growth ([2]; Minimal medium): 102% | Relative stop band intensity signal ([3]; Fig 1f, RF1 (1X)): 0.2211 | Relative stop band intensity signal ([3]; Fig 1g, RF1 (10X)): 0.4823 | stalling of ribosomes at the stop codon [3]: good activity | OD600 at t = 12 h, Normalized, Average ([4]; 5 μM): 85% | OD600 at t = 12 h, Normalized, Average ([4]; 30 μM): 72%
